Experimental data from ChEMBL document CHEMBL1201862, “PubChem BioAssay data set” (2004).
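Interpolation was linear, between the two tested concentrations surrounding the appropriate level; five concentrations were tested over 48 hours in 96-well plates. GI50 marks 50% less growth.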 The source made the active and inactive calls. Cut-off read from the data, not from the text of the source: active = GI50 up to about 1.1 µM and inactive = higher.

What was measured:
Assay in all cases: inhibition of tumour cell growth, NCI panel, 48 h
CAKI-1 = tested on: CAKI-1
HCT-116 = tested on: HCT-116
HL-60 = tested on: HL-60
HOP-62 = tested on: HOP-62
HOP-92 = tested on: HOP-92
HT-29 = tested on: HT-29
KM12 = tested on: KM12
NCI-H226 = tested on: NCI-H226
NCI-H23 = tested on: NCI-H23
NCI-H460 = tested on: NCI-H460
NCI-H522 = tested on: NCI-H522
OVCAR-3 = tested on: OVCAR-3
SF-539 = tested on: SF-539
SK-MEL-28 = tested on: SK-MEL-28
SR = tested on: SR
SW-620 = tested on: SW-620
HCT-15 = tested on: HCT-15

Structure (SMILES)	GI50 (CAKI-1)	GI50 (HCT-116)	GI50 (HL-60)	GI50 (HOP-62)	GI50 (HOP-92)	GI50 (HT-29)	GI50 (KM12)	GI50 (NCI-H226)	GI50 (NCI-H23)	GI50 (NCI-H460)	GI50 (NCI-H522)	GI50 (OVCAR-3)	GI50 (SF-539)	GI50 (SK-MEL-28)	GI50 (SR)	GI50 (SW-620)	GI50 (HCT-15) [µM]
COc1ccc(C2(CN(C)C)COc3cc(OC)c(OC)cc3C2=O)cc1OC (stereo not drawn)	42.1 µM (inactive)	16.3 µM (inactive)	16.6 µM (inactive)	> 100 µM (inactive)	79.3 µM (inactive)	46.7 µM (inactive)	61.5 µM (inactive)	84.9 µM (inactive)	32.7 µM (inactive)	33.9 µM (inactive)	59.6 µM (inactive)	86.7 µM (inactive)	39.9 µM (inactive)	> 100 µM (inactive)	30.6 µM (inactive)	21.6 µM (inactive)	
Nc1cccc2c1-c1c(cccc1[N+](=O)[O-])C2=O	> 100 µM (inactive)	> 100 µM (inactive)	> 100 µM (inactive)	> 100 µM (inactive)	> 100 µM (inactive)	> 100 µM (inactive)	> 100 µM (inactive)	> 100 µM (inactive)	> 100 µM (inactive)	> 100 µM (inactive)	> 100 µM (inactive)	> 100 µM (inactive)	> 100 µM (inactive)		> 100 µM (inactive)	> 100 µM (inactive)	> 100
COC1=CC(=O)C2C(C1=O)C(c1ccccc1)[C@H]2C (stereo partly drawn)			38.9 µM (inactive)	> 100 µM (inactive)	25.7 µM (inactive)	> 100 µM (inactive)	> 100 µM (inactive)		> 100 µM (inactive)	> 100 µM (inactive)		87.1 µM (inactive)	> 100 µM (inactive)	> 100 µM (inactive)	31.6 µM (inactive)	18.5 µM (inactive)	18.9
O=C(c1ccccc1)[C@H]1Nc2ccc(Cl)cc2[C@H]2c3ccccc3O[C@H]21	14 µM (inactive)	17.2 µM (inactive)		18.1 µM (inactive)		12.7 µM (inactive)	16.1 µM (inactive)	> 10 µM (inactive)	14.2 µM (inactive)	16.5 µM (inactive)	17.8 µM (inactive)	13.1 µM (inactive)	15 µM (inactive)	12.3 µM (inactive)	16.5 µM (inactive)	16.5 µM (inactive)	14.4
O=c1cc2n(c(=O)[nH]1)C1OC(C(O)C1O)[C@H]2CCO (stereo partly drawn)	> 100 µM (inactive)		> 100 µM (inactive)	> 100 µM (inactive)	> 100 µM (inactive)	> 100 µM (inactive)	> 100 µM (inactive)	> 100 µM (inactive)	> 100 µM (inactive)	> 100 µM (inactive)	> 100 µM (inactive)		> 100 µM (inactive)	> 100 µM (inactive)	> 100 µM (inactive)	> 100 µM (inactive)	
CC(C)C1C(=O)NC(CO)Cc2c[nH]c3c(C(c4c[nH]c5ccccc45)C(O)CO)ccc(c23)N1C (stereo not drawn)		> 100 µM (inactive)	5.11 µM (inactive)		0.612 µM (active)	> 100 µM (inactive)	> 100 µM (inactive)		> 100 µM (inactive)	5.02 µM (inactive)	> 100 µM (inactive)	> 100 µM (inactive)	> 100 µM (inactive)	> 100 µM (inactive)	21.7 µM (inactive)	74.8 µM (inactive)	
CCCCCCCCc1cc2c(O)c(c1)Cc1cc(CCCCCCCC)cc(c1O)Cc1cc(CCCCCCCC)cc(c1O)Cc1cc(CCCCCCCC)cc(c1O)Cc1cc(CCCCCCCC)cc(c1O)Cc1cc(CCCCCCCC)cc(c1O)C2	> 100 µM (inactive)	> 100 µM (inactive)	> 100 µM (inactive)	> 10 µM (inactive)	> 100 µM (inactive)	> 100 µM (inactive)	> 100 µM (inactive)		> 100 µM (inactive)	> 100 µM (inactive)			> 100 µM (inactive)	> 100 µM (inactive)	> 100 µM (inactive)	> 100 µM (inactive)	> 100
Cc1ccc(F)c2c(=O)cc(-c3ccccc3)[nH]c12	> 100 µM (inactive)	> 100 µM (inactive)	> 100 µM (inactive)	> 100 µM (inactive)	> 100 µM (inactive)	> 100 µM (inactive)	98.2 µM (inactive)	63 µM (inactive)	> 100 µM (inactive)	> 100 µM (inactive)	> 100 µM (inactive)		> 100 µM (inactive)	> 100 µM (inactive)	50.5 µM (inactive)	> 100 µM (inactive)	> 100
CCN(CC)CC(=O)/C=C/c1ccc(C)cc1	17.8 µM (inactive)	17.5 µM (inactive)	20.2 µM (inactive)	34.1 µM (inactive)	30.1 µM (inactive)	22.3 µM (inactive)	17.5 µM (inactive)	22.1 µM (inactive)	30.5 µM (inactive)	20.6 µM (inactive)		19.9 µM (inactive)	20.7 µM (inactive)	23.8 µM (inactive)	27.7 µM (inactive)	16.2 µM (inactive)	18.9
Oc1cc(-c2ccccc2)nc2cc(Cl)ccc12	0.283 µM (active)	0.339 µM (active)	0.24 µM (active)	1.31 µM (inactive)	0.376 µM (active)	2 µM (inactive)	0.695 µM (active)	7.67 µM (inactive)	1.1 µM (active)	0.417 µM (active)	0.112 µM (active)		0.412 µM (active)	17.9 µM (inactive)		0.34 µM (active)	0.387
COC(=O)C1=CCS(=O)(=O)C1	> 100 µM (inactive)	> 100 µM (inactive)	> 100 µM (inactive)	> 100 µM (inactive)	> 100 µM (inactive)	> 100 µM (inactive)	> 100 µM (inactive)	> 100 µM (inactive)	> 100 µM (inactive)	> 100 µM (inactive)		> 100 µM (inactive)	> 100 µM (inactive)	> 100 µM (inactive)		> 100 µM (inactive)	> 100
CCOc1cn(C2OC(CO)C(O)C2O)c(=O)[nH]c1=O (stereo not drawn)	> 100 µM (inactive)	> 100 µM (inactive)	> 100 µM (inactive)	> 100 µM (inactive)	> 100 µM (inactive)	> 100 µM (inactive)	> 100 µM (inactive)	> 100 µM (inactive)	> 100 µM (inactive)	> 100 µM (inactive)	> 100 µM (inactive)	> 100 µM (inactive)		> 100 µM (inactive)		31.3 µM (inactive)	> 100
O=C1CC[C@@H](NC(=O)Cc2ccccc2)C(=O)N1	> 100 µM (inactive)	> 100 µM (inactive)		> 100 µM (inactive)	> 100 µM (inactive)	> 100 µM (inactive)	> 100 µM (inactive)	> 100 µM (inactive)	> 100 µM (inactive)	> 100 µM (inactive)	> 100 µM (inactive)	> 100 µM (inactive)	> 100 µM (inactive)	> 100 µM (inactive)	> 100 µM (inactive)	> 100 µM (inactive)	
CCC1CCC2CCCC(C)N12 (stereo not drawn)	> 100 µM (inactive)	> 100 µM (inactive)	> 100 µM (inactive)	> 100 µM (inactive)	> 100 µM (inactive)		> 100 µM (inactive)	> 100 µM (inactive)	> 100 µM (inactive)		> 100 µM (inactive)	> 100 µM (inactive)	> 100 µM (inactive)	> 100 µM (inactive)	> 100 µM (inactive)	> 100 µM (inactive)	> 100
O=C1NC2(CCCC2)/C(=N\O)C12CCCC2	> 100 µM (inactive)	> 100 µM (inactive)	> 100 µM (inactive)	> 100 µM (inactive)	> 100 µM (inactive)	> 100 µM (inactive)	> 100 µM (inactive)		> 100 µM (inactive)	> 100 µM (inactive)	> 100 µM (inactive)	> 100 µM (inactive)	> 100 µM (inactive)	> 100 µM (inactive)	> 100 µM (inactive)	> 100 µM (inactive)	> 100
COC(=O)N/N=C(/CCN1CCCC1)CC(c1ccccc1)c1c(O)c2ccccc2oc1=O (stereo not drawn)	> 100 µM (inactive)	> 100 µM (inactive)	> 100 µM (inactive)	> 100 µM (inactive)		> 100 µM (inactive)	> 100 µM (inactive)	> 100 µM (inactive)	> 100 µM (inactive)	> 100 µM (inactive)	> 100 µM (inactive)	> 100 µM (inactive)	> 100 µM (inactive)	> 100 µM (inactive)	> 100 µM (inactive)	> 100 µM (inactive)	> 100
NCCOCn1cc(Cc2cccc(OCc3ccccc3)c2)c(=O)[nH]c1=O		86.7 µM (inactive)	55.5 µM (inactive)		> 100 µM (inactive)	71.1 µM (inactive)	> 100 µM (inactive)	> 100 µM (inactive)	> 100 µM (inactive)	63.5 µM (inactive)		> 100 µM (inactive)	> 100 µM (inactive)	> 100 µM (inactive)		> 100 µM (inactive)	> 100
[O-][S+]1Cc2ccccc2CSS1 (stereo not drawn)	16.3 µM (inactive)	15 µM (inactive)	3.44 µM (inactive)		15.6 µM (inactive)	14.4 µM (inactive)	16.8 µM (inactive)	27.2 µM (inactive)	14.3 µM (inactive)	16.8 µM (inactive)	6.28 µM (inactive)	15.1 µM (inactive)	14.5 µM (inactive)	13.8 µM (inactive)	13.9 µM (inactive)	13.6 µM (inactive)	13
O=C1CCC2(c3ccc(F)cc3)Nc3cc(Cl)ccc3N12 (stereo not drawn)		67.8 µM (inactive)	63.4 µM (inactive)	> 100 µM (inactive)		> 100 µM (inactive)	> 100 µM (inactive)	38.5 µM (inactive)	38.3 µM (inactive)		48.6 µM (inactive)	86.5 µM (inactive)	> 100 µM (inactive)	> 100 µM (inactive)	43.4 µM (inactive)	> 100 µM (inactive)	> 100
